Patent US11116757B2 (priority 2015, dated 2021)
Read-outs that look alike come from different tables or passages of the source.

Target: DCN1-UBC12 interaction (Homo sapiens (Human), UniProt Q96GG9)
Test: biochemical
Type: binding
Conditions: read-out: TR-FRET IC50

DCN1-UBC12 interaction, sequence (Q96GG9 60-248 limits assumed): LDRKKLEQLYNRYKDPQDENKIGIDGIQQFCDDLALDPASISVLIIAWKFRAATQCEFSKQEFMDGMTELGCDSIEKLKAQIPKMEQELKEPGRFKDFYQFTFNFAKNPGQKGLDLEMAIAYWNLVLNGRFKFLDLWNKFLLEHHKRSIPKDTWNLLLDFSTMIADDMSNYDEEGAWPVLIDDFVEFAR

Structure (SMILES)	IC50 [µM]	further results
CCN(CC)CCNC(=O)c1cnn(-c2ncc(C)c(-c3cccs3)n2)c1C1CC1 [E28]		IC50 (Table 6, commercial compounds): > 37.4 µM
CCCCN1CCC(C(Cc2ccccc2)C(=O)Nc2cccc(C(F)(F)F)c2)CC1 (centres unmarked) [A156]	7.11	
CC1CN(Cc2ccccc2)CCC1N(C)C(=O)Nc1cccc2cnccc12 (centres unmarked) [B23]	> 113	
CCCC(C)N1CCC(N(Cc2ccccc2)C(=O)Nc2ccc([N+](=O)[O-])c(C(F)(F)F)c2)CC1 (centres unmarked) [A237]	> 48.4	
O=C(Nc1ccc(C(F)(F)F)cc1)C1CCN(C(=O)c2ccccc2F)CC1 [C65]		IC50 (Table 4, commercial compounds): > 68.1 µM
O=C(CN1CCN(Cc2ccccc2)CC1)Nc1cc(C(F)(F)F)ccc1Cl [B113]	> 74	
O=C(Nc1cccnc1Cl)NC1CCN(C(=O)c2ccccc2F)CC1 [B30]	> 53.3	
O=C(c1ccc(F)cc1Cl)N1CCC(c2nc3ccccc3s2)CC1 [D5]	18.2	
Cc1cnc(-n2ncc(C(=O)N(C)CC(C)C)c2C)nc1-c1cccs1 [E41]		IC50 (Table 6, commercial compounds): > 67.6 µM
Cc1cnc(-n2ncc(C(=O)N3CCN(C(C)C)CC3)c2C2CC2)nc1-c1cccs1 [E40]		IC50 (Table 6, commercial compounds): > 67.6 µM
COCC(=O)N1CCC(C(=O)Nc2ccc(-c3cc4ccccc4[nH]3)cc2)CC1 [C46]		IC50 (Table 4, commercial compounds): > 67.6 µM
C=CC(=O)NCCN(C(=O)Nc1cccc(C(F)(F)F)c1)C1CCN(C(C)CCC)CC1 (centres unmarked) [A187]	33.8	
CCCC(C)N1CCC(N(Cc2ccccc2)C(=O)Nc2cc(C)cc(C)c2)CC1 (centres unmarked) [A98]	1.38	
CC(C1CCC1)N1CCC(N(Cc2ccccc2)C(=O)Nc2cc(F)cc(C(F)(F)F)c2)CC1 (centres unmarked) [A118]	0.143	
O=C(Nc1ccc2c(c1)OC(F)(F)O2)NC1CCN(C(=O)c2ccccc2)CC1 [B114]	> 74.1	
O=C(Nc1ccc(C(=O)N2CCOCC2)cc1)Nc1cccc(C(F)(F)F)c1 [B46]	> 66.3	
COc1cc(C(=O)N2CCCC(c3nc4ccccc4s3)C2)cc(OC)c1OCC(N)=O (centres unmarked) [D24]	> 67.6	
CCN(CC)CCN(CC)C(=O)c1cnn(-c2nccc(-c3cccs3)n2)c1C1CC1 [E2]		IC50 (Table 6, commercial compounds): 4.53 µM
COc1ccc(C(=O)NC2CCN(C(=O)c3ccc(OC)cc3)CC2)cc1 [C71]		IC50 (Table 4, commercial compounds): > 92.2 µM
CCCC(C)N1CCC(N(Cc2ccccc2)C(=O)Nc2cc(Cl)ccc2F)CC1 (centres unmarked) [A159]	7.72	
CCN1CCN(C(=O)c2cnn(-c3nccc(-c4cccs4)n3)c2C)CC1 [E23]		IC50 (Table 6, commercial compounds): 57.9 µM

Structure (SMILES)	IC50 [µM]	further results
CCN1CCC(N(Cc2ccc3c(c2)OCO3)C(=O)Nc2cccc(Br)c2)CC1 [B4]	4.06	
CC(c1ccccc1)N1CCC(N(Cc2ccccc2)C(=O)Nc2cc(F)cc(C(F)(F)F)c2)CC1 (centres unmarked) [A148]	4.98	
O=C(CN1CCN(c2ccccc2)CC1)Nc1cccc(C(F)(F)F)c1 [B37]	> 60.6	
CCCC(C)N1CCC(N(Cc2ccccc2)C(=O)Nc2ccc(CN3CCCC3)cc2)CC1 (centres unmarked) [A247]	> 58.5	
CCCC(C)N1CCC(N(Cc2ccccc2)C(=O)Nc2cccc(C(=O)OC)c2)CC1 (centres unmarked) [A81]	0.88	
CCN(CC)CCN(CC)C(=O)c1cnn(-c2nccc(-c3cccs3)n2)c1C(C)C [E5]		IC50 (Table 6, commercial compounds): 17.4 µM
Cc1ccc(NC(=O)NC2CCN(Cc3ccccc3)CC2)cc1Cl [B59, 1-(1-Benzylpiperidin-4-yl)-3-(3-Chloro-4-Methylphenyl)Urea]	> 67.6	
C=CC(=O)NCc1ccccc1CN(C(=O)Nc1cccc(C(F)(F)F)c1)C1CCN(C(C)CCC)CC1 (centres unmarked) [drawing 846]	< 0.01	
CCCCN1CCC(N(Cc2ccccc2)C(=O)Nc2cc(F)cc(C(F)(F)F)c2)CC1 [A45]	0.256	
O=C(Nc1ccc(F)cc1)C1CCN(C(=O)c2ccco2)CC1 [C31]		IC50 (Table 4, commercial compounds): > 67.6 µM
CC1CC(NC(=O)Nc2cnn(C)c2)CCN1Cc1ccccc1 (centres unmarked) [B42]	> 64.4	
CC(=O)N1CCC(N(Cc2ccc(C)o2)C(=O)Nc2cc(Cl)ccc2Cl)CC1 [B89]	> 67.6	
COc1ccc(C(=O)N2CCC(C(=O)Nc3ccccc3C)CC2)c2ccccc12 [C62]		IC50 (Table 4, commercial compounds): > 67.6 µM
Cc1c(C(=O)NCC(C)(C)CN(C)C)cnn1-c1nccc(-c2cccs2)n1 [E47]		IC50 (Table 6, commercial compounds): > 67.6 µM
COCCN1CCN(C(=O)c2cnn(-c3ncc(C)c(-c4cccs4)n3)c2C)CC1 [E32]		IC50 (Table 6, commercial compounds): > 67.6 µM
COc1cc(CN2CCC(NC(=O)Nc3cccc(C)c3)CC2)cc(OC)c1OC [B12]	29.3	
CCCC(C)N1CCC(N(Cc2ccccc2)C(=O)Nc2ccc(Cl)cc2F)CC1 (centres unmarked) [A91]	1.19	
C=CS(=O)(=O)NCc1ccccc1CN(C(=O)Nc1cccc(C(F)(F)F)c1)C1CCN(C(C)CCC)CC1 (centres unmarked) [drawing 850]	< 0.01	
CCN1CCC(N(Cc2ccco2)C(=O)Nc2ccc(C)c(F)c2)CC1 [B11]	23.8	
Cc1ccc(CN(C(=O)Nc2cc(F)ccc2F)C2CCN(Cc3ccccc3)CC2)o1 [B93]	> 67.6	
CCc1cccc(NC(=O)C2CCN(C(C)=O)CC2)c1 [C32]		IC50 (Table 4, commercial compounds): > 67.6 µM

Structure (SMILES)	IC50 [µM]	further results
Cc1nn(C)c2c1C(c1cccc(Cl)c1)C(NC(=O)c1ccc(Cl)cc1)C(=O)N2 (centres unmarked) [F28]		IC50 (Table 7, commercial compounds): > 67.6 µM
CCCC(C)N1CCC(N(CCNC(=O)CCl)C(=O)Nc2cccc(C(F)(F)F)c2)CC1 (centres unmarked) [drawing 837]	> 60	
CCOc1ccc(NC(=O)N(Cc2ccco2)C2CCN(CC)CC2)cc1 [B80]	> 67.6	
CCCC(C)N1CCC(N(Cc2ccccc2)C(=O)Nc2cc(F)c(F)c(F)c2)CC1 (centres unmarked) [A59]	0.355	
CCCC(C)N1CCC(N(Cc2ccccc2)C(=O)Nc2cc(F)ccc2Cl)CC1 (centres unmarked) [A169]	11	
Cc1c(C(=O)N(C)CC(C)C)cnn1-c1nccc(-c2cccs2)n1 [E6]		IC50 (Table 6, commercial compounds): 18.8 µM
COc1ccccc1N1CCN(CC(=O)Nc2cccc(C(F)(F)F)c2)CC1 [B107]	> 72.3	
CCCCN1CCC(N(Cc2ccccc2)C(=O)Nc2ccc(F)c(C(F)(F)F)c2)CC1 [A26]	0.163	
O=C(Nc1cccc(C(F)(F)F)c1)N1CCN(Cc2cccnc2)CC1 [B116]	> 74.8	
Cc1cccc(C(=O)NC2C(=O)Nc3c(c(C)nn3C)C2c2cccc(F)c2)c1 (centres unmarked) [F15]		IC50 (Table 7, commercial compounds): > 67.6 µM
CCCN1CCC(NC(=O)Nc2ccccc2Cl)CC1 [B51]	> 67.6	
CCCC(C)N1CCC(N(Cc2ccccc2NC(=O)CCl)C(=O)Nc2cccc(C(F)(F)F)c2)CC1 (centres unmarked) [A38]	0.208	
C=CS(=O)(=O)NCCCN(C(=O)Nc1cccc(C(F)(F)F)c1)C1CCN(C(C)CCC)CC1 (centres unmarked) [A220]	> 24.5	
O=C(Nc1cc(F)cc(C(F)(F)F)c1)N(Cc1ccccc1)C1CCN(Cc2cnccn2)CC1 [A226]	> 26.6	
CCCCN1CCC(N(Cc2ccccc2)C(=O)Nc2ccc(OC)c(Cl)c2)CC1 [A287]	> 72.5	
COc1cccc(NC(=O)C2CCN(C(=O)c3cccc(F)c3)CC2)c1 [C43]		IC50 (Table 4, commercial compounds): > 67.6 µM
CCN1CCC(NC(=O)Nc2cc(Cl)ccc2Cl)CC1 [B54]	> 67.6	
CCOc1ccc(C(=O)N2CCCC(c3nc4ccccc4s3)C2)cc1 (centres unmarked) [D25]	> 67.6	
Cc1ccc(CN2CCC(N(Cc3ccccc3)C(=O)Nc3cc(F)cc(C(F)(F)F)c3)CC2)o1 [A219]	> 24.2	
COc1ccc(OC)c(NC(=O)C2CCN(C(C)=O)CC2)c1 [C33]		IC50 (Table 4, commercial compounds): > 67.6 µM
CCCN1CCC(NC(=O)Nc2ccc(Cl)cc2Cl)CC1 [B14]	43	

Structure (SMILES)	IC50 [µM]	further results
O=C(Nc1cc(F)cc(C(F)(F)F)c1)N(Cc1ccccc1)C1CCN(Cc2ncc[nH]2)CC1 [A225]	> 26.1	
Cc1cc(NC(=O)NC2CCN(Cc3ccccc3)CC2)c(C(F)(F)F)o1 [B119]	> 79	
CCCC(C)N1CCC(N(Cc2ccccc2)C(=O)Nc2ccc(C)c(C)c2)CC1 (centres unmarked) [A31]	0.184	
CCCC(C)N1CCC(N(Cc2ccccc2)C(=O)Nc2cc(F)ccc2F)CC1 (centres unmarked) [A281]	> 70.6	
CCCN1CCN(C(=O)c2cnn(-c3nccc(-c4cccs4)n3)c2COC)CC1 [E27]		IC50 (Table 6, commercial compounds): > 16.7 µM
CCCC(C)N1CCC(N(Cc2ccccc2)C(=O)NCc2ccc(N)cc2)CC1 (centres unmarked) [A233]	> 39.4	
O=C(Nc1cc(F)cc(C(F)(F)F)c1)N(Cc1ccccc1)C1CCN(CC2CCOC2)CC1 (centres unmarked) [A144]	4.49	
CCOC(=O)c1ccccc1NC(=O)N(C(C)C)C1CCN(C(C)=O)CC1 [B66]	> 67.6	
CCCC(C)N1CCC(N(Cc2ccccc2)C(=O)Nc2ccc(CC)cc2)CC1 (centres unmarked) [A56]	0.315	
FC(F)(F)c1cccc(CN2CCN(Cc3nc4ccccc4[nH]3)CC2)c1 [B28]	> 46.3	
CCCC(C)N1CCC(N(Cc2ccccc2)C(=O)Nc2cccc(OCc3ccccc3)c2)CC1 (centres unmarked) [A94]	1.29	
O=C(NC1CCN(Cc2cccc(F)c2)CC1)C(F)(F)F [A307]	> 98.1	
CCCC(C)N1CCC(N(Cc2ccccc2)C(=O)Nc2ccn(-c3ccc(Cl)cc3)n2)CC1 (centres unmarked) [A153]	6.47	
CC1CN(Cc2ccccc2)CCC1N(C)C(=O)Nc1cn[nH]c1 (centres unmarked) [B24]	> 15.2	
CCN1CCC(N(Cc2ccco2)C(=O)Nc2ccc(Br)c(C)c2)CC1 [B2]	3	
O=C(Nc1cc(F)cc(C(F)(F)F)c1)N(Cc1ccccc1)C1CCN(Cc2ccc[nH]2)CC1 [A215]	> 23.4	
CCN1CCC(N(Cc2ccco2)C(=O)Nc2cc(Cl)ccc2C)CC1 [B78]	> 67.6	
Cc1ccccc1CN1CCC(NC(=O)Nc2cccc(C(F)(F)F)c2)CC1 [A135]	3.35	
CCCC(C)N1CCC(N(Cc2ccccc2)C(=O)Nc2ccc(-c3ccc(OC)cc3)cc2)CC1 (centres unmarked) [A164]	8.9	
CCCC(C)N1CCC(N(Cc2ccccc2)C(=O)Nc2ccc(Cl)c(Cl)c2F)CC1 (centres unmarked) [A40]	0.227	
